By Kd is commonly meant the constant that tells how readily two partners part at equilibrium.

Values joined by “and” are separate entries in the source; they are usually repeats but may differ in a detail not shown here. Equal values may be shown once. Read-outs that look alike come from different tables or passages of the source. Bridge positions count the residues as written; N and C are the ends. Peptide text beside a SMILES is read from it.

The assay addresses T1, soluble human FcRn (Homo sapiens, UniProt P55899).
T1 construct: Soluble human FcRn was expressed and purified by Biogen-Idec as previously described (29)
Nature of the assay: SPR (Biacore) affinity of peptides for immobilized soluble human FcRn. The assay is classed as binding. As for the experimental part: SPR analyses were conducted using a Biacore 3000 or T100 instrument. Research-grade CM5 sensor chips and all coupling reagents for immobilization were purchased from Biacore. All proteins were cross-linked to the dextran surface of a CM5 sensor chip by standard amine coupling chemistry as recommended by Biacore. […] Binding experiments were performed at pH 6.0 or 7.4 using 50 mM phosphate, 100 mM sodium chloride and 0.01% surfactant P20. […] Bound albumin protein was then allowed to dissociate from the chip for 5 minutes with running buffer. Any remaining albumin was removed from the chip with a 60 second injection (2 cycles) of pH 8.0 Tris-HCl regeneration buffer (1 M Tris pH 8.0) at 25 μL/min flow rate. The binding responses recorded near the end of the association phase were plotted as a function of concentration. Equilibrium dissociation constants (KD), were derived from sensorgrams using the 1:1 binding model of BIAevaluation software 4.1.
In general terms: SPR reads the build-up and loss of mass on a sensor chip optically.

[1] abbreviates: Table 1, pH 6, shFcRn immobilized on the sensor chip, steady state fit, read-out: Kd, pH 6** Biacore.
[2] abbreviates: Table 2, pH 7.4, data only 100 uM, therefore Kd may be higher, read-out: Kd, pH 7.4 Biacore.
Where [3] appears, read: Table 2, pH 6, immobilized shFcRn, data fit steady state or 2 site, read-out: Kd, pH 6** Biacore.

T1 sequence (P55899 24-297 limits assumed): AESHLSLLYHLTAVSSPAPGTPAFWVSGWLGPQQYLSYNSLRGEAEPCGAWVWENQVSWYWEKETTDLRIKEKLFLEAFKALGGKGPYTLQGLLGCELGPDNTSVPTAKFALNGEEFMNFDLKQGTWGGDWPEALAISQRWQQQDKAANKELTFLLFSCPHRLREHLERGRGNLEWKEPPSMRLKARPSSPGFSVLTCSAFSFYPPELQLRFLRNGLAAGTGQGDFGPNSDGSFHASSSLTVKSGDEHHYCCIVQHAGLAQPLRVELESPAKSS
T1 sequence (P61769 21-119 partner): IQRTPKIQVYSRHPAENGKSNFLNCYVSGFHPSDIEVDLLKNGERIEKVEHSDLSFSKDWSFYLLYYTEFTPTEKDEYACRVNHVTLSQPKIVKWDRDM

For `CSCC[C@H](NC(=O)[C@@H](NC(C)=O)C(C)C)C(=O)N[C@@H](Cc1c[nH]cn1)C(=O)N[C@H]1CSSC[C@@H](C(=O)N[C@@H](CC(=O)O)C(=O)N[C@@H](CCC(N)=O)C(=O)NCC(N)=O)NC(=O)[C@H](CCCNC(=N)N)NC(=O)[C@H](Cc2ccccc2)NC(=O)[C@H](C)NC(=O)[C@H](CCC(=O)O)NC(=O)[C@H](CC(=O)O)NC(=O)[C@H](Cc2c[nH]c3ccccc23)NC(=O)[C@H](Cc2ccccc2)NC1=O` [SYN1382] (Ac-VMHCFWDEAFRCDQG-NH2; disulfide 4-12 (inferred)), the “Kd Ratio 7.4/6.0” value (Table 2) came to 25.
In the case of `CC(=O)N[C@@H](CCCNC(=N)N)C(=O)N[C@@H](Cc1ccc(O)cc1)C(=O)N[C@@H](Cc1ccccc1)C(=O)N[C@H]1CSSC[C@@H](C(=O)N[C@@H](CCC(=O)O)C(=O)N[C@@H](CCC(=O)O)C(=O)N[C@H](C(N)=O)C(C)C)NC(=O)[C@H](Cc2c[nH]c3ccccc23)NC(=O)CNC(=O)[C@H](Cc2c[nH]cn2)NC(=O)[C@H](CCCCN)NC(=O)[C@H](C)NC(=O)[C@H](CCCCN)NC(=O)[C@H]([C@@H](C)O)NC1=O` [SYN1547] (Ac-RYFCTKAKHGWCEEV-NH2; disulfide 4-12), the Kd under setting [1] was more than 100 µM.
Regarding `CSCC[C@H](NC(=O)[C@@H](NC(C)=O)C(C)C)C(=O)N[C@@H](Cc1c[nH]cn1)C(=O)N[C@H]1CSSC[C@@H](C(=O)N[C@@H](CC(=O)O)C(=O)N[C@@H](Cc2ccc(O)cc2)C(=O)NCC(N)=O)NC(=O)[C@H](CCCCN)NC(=O)[C@H](Cc2ccccc2)NC(=O)[C@H](CCC(=O)O)NC(=O)[C@H](CCC(=O)O)NC(=O)[C@H](CC(=O)O)NC(=O)[C@H](Cc2c[nH]c3ccccc23)NC(=O)[C@H](Cc2ccccc2)NC1=O` [SYN1259] (Ac-VMHCFWDEEFKCDYG-NH2; disulfide 4-12 (inferred)), the “Kd Ratio 7.4/6.0” value (Table 2) came to 132. In addition, under setting [2], the Kd is 12 µM.
The like results for `CSCC[C@H](NC(=O)[C@H](Cc1ccc(O)cc1)NC(C)=O)C(=O)N[C@H](C(=O)N[C@H]1CSSC[C@@H](C(=O)N[C@@H](CCC(=O)O)C(=O)N[C@@H](C)C(=O)N[C@H](C(N)=O)C(C)C)NC(=O)[C@H](CO)NC(=O)[C@H](Cc2ccccc2)NC(=O)CNC(=O)[C@H](CC(=O)O)NC(=O)[C@H](CC(=O)O)NC(=O)[C@H](Cc2c[nH]c3ccccc23)NC(=O)[C@H](CCCCN)NC1=O)[C@@H](C)O` [SYN1155] (Ac-YMTCKWDDGFSCEAV-NH2; disulfide 4-12 (inferred)) were, in that order, 9.8 and 17.3 µM.
`CSCC[C@H](NC(=O)[C@@H](NC(C)=O)C(C)C)C(=O)N[C@@H](Cc1c[nH]cn1)C(=O)N[C@H]1CSSC[C@@H](C(=O)N[C@@H](CC(=O)O)C(=O)N[C@@H](CCC(N)=O)C(=O)NCC(N)=O)NC(=O)[C@H](CCCCN)NC(=O)[C@H](Cc2ccccc2)NC(=O)[C@H](CCC(=O)O)NC(=O)[C@H](CCC(=O)O)NC(=O)[C@H](CC(=O)O)NC(=O)[C@H](Cc2c[nH]c3ccccc23)NC(=O)[C@H](C)NC1=O` [SYN1217] (Ac-VMHCAWDEEFKCDQG-NH2; disulfide 4-12): under setting [3], the Kd was more than 20 µM. The “Kd, pH 7.4 Biacore” value (Table 2, pH 7.4, data only 100 uM, therefore Kd may be higher) is on record as “no bind”.
With `CSCC[C@H](NC(=O)[C@H](Cc1ccc(O)cc1)NC(C)=O)C(=O)N[C@@H](Cc1c[nH]cn1)C(=O)N[C@H]1CSSC[C@@H](C(=O)N[C@@H](CC(=O)O)C(=O)N[C@@H](CCC(N)=O)C(=O)NCC(N)=O)NC(=O)[C@H](CCCCN)NC(=O)[C@H](Cc2ccccc2)NC(=O)[C@H](CCC(=O)O)NC(=O)[C@H](CCC(=O)O)NC(=O)[C@H](CC(=O)O)NC(=O)[C@H](Cc2c[nH]c3ccccc23)NC(=O)[C@H](Cc2ccccc2)NC1=O` [SYN1256] (Ac-YMHCFWDEEFKCDQG-NH2; disulfide 4-12 (inferred)), the “Kd Ratio 7.4/6.0” value (Table 2) was 69.
As to `CC(=O)N[C@@H](CCCNC(=N)N)C(=O)N[C@@H](Cc1ccc(O)cc1)C(=O)N[C@@H](Cc1ccccc1)C(=O)N[C@H]1CSSC[C@@H](C(=O)N[C@@H](CCC(=O)O)C(=O)N[C@@H](CCC(=O)O)C(=O)N[C@H](C(N)=O)C(C)C)NC(=O)[C@H](Cc2c[nH]c3ccccc23)NC(=O)CNC(=O)[C@H](Cc2c[nH]cn2)NC(=O)[C@H](C)NC(=O)[C@H](Cc2c[nH]c3ccccc23)NC(=O)[C@H](CCCCN)NC(=O)[C@H]([C@@H](C)O)NC1=O` [SYN1548] (Ac-RYFCTKWAHGWCEEV-NH2; disulfide 4-12 (inferred)), under setting [1], the Kd turned out to be 9.3 µM.
As to `CSCC[C@@H]1NC(=O)[C@H](CCC(=O)O)NC(=O)[C@H](CCC(=O)O)NC(=O)[C@H](CC(=O)O)NC(=O)[C@H](Cc2c[nH]c3ccccc23)NC(=O)[C@H](Cc2c[nH]c3ccccc23)NC(=O)[C@@H](NC(=O)[C@H](CCCCN)NC(=O)[C@H](CCSC)NC(=O)[C@@H](NC(=O)CNC(=O)[C@H](C)NC(C)=O)C(C)C)CSSC[C@@H](C(=O)N[C@@H](CCCNC(=N)N)C(=O)N[C@@H](C)C(=O)N[C@@H](Cc2ccccc2)C(=O)NCC(=O)N[C@H](C(=O)NCC(=O)NCC(=O)NCC(=O)N[C@@H](CCCCN)C(N)=O)[C@@H](C)O)NC(=O)[C@H](CC(C)C)NC1=O` [SYN531] (Ac-AGVMKCWWDEEMLCRAFGTGGGK-NH2; disulfide 6-14 (inferred)), the “Kd Ratio 7.4/6.0” value (Table 2) worked out at 99. Besides, under setting [3], the Kd is 0.45 µM and 0.3 µM.
Turning to `CC(=O)N[C@@H](CCCNC(=N)N)C(=O)N[C@@H](Cc1ccc(O)cc1)C(=O)N[C@@H](Cc1ccccc1)C(=O)N[C@H]1CSSC[C@@H](C(=O)N[C@@H](CCC(=O)O)C(=O)N[C@@H](CCC(=O)O)C(=O)N[C@@H](C)C(N)=O)NC(=O)[C@H](Cc2c[nH]c3ccccc23)NC(=O)CNC(=O)[C@H](Cc2c[nH]cn2)NC(=O)[C@H](CCCCN)NC(=O)[C@H](Cc2c[nH]c3ccccc23)NC(=O)[C@H](CCCCN)NC(=O)[C@H]([C@@H](C)O)NC1=O` [SYN1554] (Ac-RYFCTKWKHGWCEEA-NH2; disulfide 4-12), under setting [1], the Kd is more than 100 µM.
As for `CSCC[C@@H]1NC(=O)[C@H](CCC(=O)O)NC(=O)[C@H](CCC(=O)O)NC(=O)[C@H](CC(=O)O)NC(=O)[C@H](Cc2c[nH]c3ccccc23)NC(=O)[C@H](Cc2c[nH]c3ccccc23)NC(=O)[C@@H](NC(=O)[C@H](CCCCN)NC(=O)[C@H](CCSC)NC(=O)[C@@H](NC(C)=O)C(C)C)CSSC[C@@H](C(=O)N[C@@H](CCCNC(=N)N)C(=O)N[C@@H](C)C(=O)N[C@H](C(N)=O)C(C)C)NC(=O)[C@H](CC(C)C)NC1=O` [SYN1540 A] (Ac-VMKCWWDEEMLCRAV-NH2; disulfide 4-12), for the setting “Table 2”, the “Kd Ratio 7.4/6.0” value is 80.
In the case of `CSCC[C@@H]1NC(=O)[C@H](CCC(=O)O)NC(=O)[C@H](CCC(=O)O)NC(=O)[C@H](CC(=O)O)NC(=O)[C@H](Cc2c[nH]c3ccccc23)NC(=O)[C@H](Cc2c[nH]c3ccccc23)NC(=O)[C@@H](NC(=O)[C@H](CCCCN)NC(=O)[C@H](CCSC)NC(=O)[C@@H](NC(C)=O)C(C)C)CSSC[C@@H](C(=O)N[C@@H](CCCNC(=N)N)C(=O)N[C@@H](C)C(=O)N[C@@H](Cc2ccccc2)C(N)=O)NC(=O)[C@H](CC(C)C)NC1=O` [SYN1532] (Ac-VMKCWWDEEMLCRAF-NH2; disulfide 4-12 (inferred)), where the note is “Table 2”, the “Kd Ratio 7.4/6.0” value came out at 112. Further, under setting [2], the dissociation constant (Kd) is 17.3 µM.
Regarding `CSCC[C@H](NC(=O)[C@H](Cc1ccc(O)cc1)NC(C)=O)C(=O)N[C@H](C(=O)N[C@H]1CSSC[C@@H](C(=O)N[C@@H](CCC(=O)O)C(=O)N[C@@H](Cc2ccc(O)cc2)C(=O)N[C@H](C(N)=O)C(C)C)NC(=O)[C@H](CO)NC(=O)[C@H](Cc2ccccc2)NC(=O)CNC(=O)[C@H](CC(=O)O)NC(=O)[C@H](C)NC(=O)[C@H](Cc2c[nH]c3ccccc23)NC(=O)[C@H](CCCCN)NC1=O)[C@@H](C)O` [SYN1149] (Ac-YMTCKWADGFSCEYV-NH2; disulfide 4-12 (inferred)), for the setting “Table 2”, the “Kd Ratio 7.4/6.0” value amounted to 7.8. The Kd under setting [2] was 12 µM.
As for `CSCC[C@H](NC(=O)[C@H](Cc1ccc(O)cc1)NC(C)=O)C(=O)N[C@H](C(=O)N[C@H]1CSSC[C@@H](C(=O)N[C@@H](CCC(=O)O)C(=O)N[C@@H](Cc2ccc(O)cc2)C(=O)N[C@H](C(N)=O)C(C)C)NC(=O)[C@H](CO)NC(=O)[C@H](Cc2ccccc2)NC(=O)CNC(=O)[C@H](C)NC(=O)[C@H](CC(=O)O)NC(=O)[C@H](Cc2c[nH]c3ccccc23)NC(=O)[C@H](CCCCN)NC1=O)[C@@H](C)O` [SYN1150] (Ac-YMTCKWDAGFSCEYV-NH2; disulfide 4-12 (inferred)), the “Kd Ratio 7.4/6.0” value (Table 2) is 2.2.
On the same count and under the same terms, as for `CSCC[C@H](NC(=O)[C@@H](NC(C)=O)C(C)C)C(=O)N[C@@H](Cc1c[nH]cn1)C(=O)N[C@H]1CSSC[C@@H](C(=O)N[C@@H](CC(=O)O)C(=O)N[C@@H](CCC(N)=O)C(=O)NCC(N)=O)NC(=O)[C@H](CCCCN)NC(=O)[C@H](Cc2ccccc2)NC(=O)[C@H](C)NC(=O)[C@H](CCC(=O)O)NC(=O)[C@H](CC(=O)O)NC(=O)[C@H](Cc2c[nH]c3ccccc23)NC(=O)[C@H](Cc2ccccc2)NC1=O` [SYN1216] (Ac-VMHCFWDEAFKCDQG-NH2; disulfide 4-12 (inferred)), the figure is 52; as for `CSCC[C@@H]1NC(=O)[C@H](CCC(=O)O)NC(=O)[C@H](CCC(=O)O)NC(=O)[C@H](CC(=O)O)NC(=O)[C@H](Cc2c[nH]c3ccccc23)NC(=O)[C@H](Cc2c[nH]c3ccccc23)NC(=O)[C@@H](NC(=O)[C@H](CCCCN)NC(=O)[C@H](CCSC)NC(=O)[C@@H](NC(C)=O)C(C)C)CSSC[C@@H](C(=O)N[C@@H](CCC(=O)O)C(=O)N[C@@H](C)C(=O)N[C@@H](Cc2ccccc2)C(N)=O)NC(=O)[C@H](CC(C)C)NC1=O` [SYN1538] (Ac-VMKCWWDEEMLCEAF-NH2; disulfide 4-12 (inferred)), 71.

For the origin of these results see patent publication US10588935B2, “FC receptor (FcRn) binding peptides and uses thereof” (THE BRIGHAM AND WOMEN'S HOSPITAL, INC., priority 2013, dated 2020).
